Article PMC8617031, “Development of a BCL-xL and BCL-2 dual degrader with improved anti-leukemic activity,” (Nature Communications, 2021)
Where “and” joins values, the source holds several entries; their conditions need not be identical. Identical values can stand only once.

What was measured:
[1] = target: T1, BCL-xL (Homo sapiens, UniProt Q07817); assay: BCL-xL degradation by immunoblot in 293T cells; type: cell-based; conditions: for normalized BCL-xL protein content at 1 µM: HEK-293T, 293T, 1 μM 753b, Fig. 3d
T1 construct: endogenous in cells
In short: (§1)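 Immunoblot of 293T cell lysates (RIPA, 20–40 μg protein per lane) with β-actin as loading control and chemiluminescent detection. Bands quantified by densitometry and normalized; DC50 and Dmax derived from the quantified blots, n = 3 biologically independent experiments.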

[2] = target: T2, BCL-xL/PROTAC/VHL-ELOC-ELOB (VCB) ternary complex (Homo sapiens, UniProt P40337+Q07817); assay: AlphaLISA ternary complex formation, cell-free, BCL-xL; type: binding; conditions: for AlphaLISA signal, BCL-xL/PROTAC/VCB: Fig. 3e raw Alpha reads
T2 construct: pGEX-6P-1-VHL(54-213) (pDL2200) was constructed through Gibson assembly method; made in house; host or cells: bacterial culture (LB broth, IPTG induction)
Protocol: AlphaLISA assay was used to evaluate the in vitro ternary complex formation between target proteins (BCL-xL or BCL-2), PROTAC and E3 ligase (VCB complex). In each well, 5 nM His-tagged BCL-xL or BCL-2 proteins and 5 nM GST-VCB complex was incubated with varying concentrations of compounds in fourfold serial dilutions, to a final volume of 40 µl in a 96-well PCR plate. After incubation at room temperature for 30 min, 5 µl alpha glutathione-donor beads (Cat. No. 6765300, PerkinElmer) were added to each well (20 µg/ml final concentration) and incubated for another 15 min. Thereafter, 5 µL 6× His-acceptor beads were added to each well (20 µg/ml final concentration) and incubated for an additional 45 min at room temperature. Thereafter, 17 µl of each sample was transferred in adjacent wells of a 384-well proxy plate, and the plate was scanned using the Alpha program on Biotek’s Synergy Neo2 multimode plate reader. The data were expressed as average AlphaLISA signal and plotted against different concentrations of compounds using GraphPad Prism 9 software.

[3] = target: T3, BCL-2 (Homo sapiens, UniProt P10415); assay: BCL-2 degradation by immunoblot in 293T cells; type: cell-based; conditions: for normalized BCL-2 protein content at 1 µM: HEK-293T, 293T, 1 μM 753b, Fig. 3d
T3 construct: endogenous in cells
In short: as §1

[4] = compound 50000 nM, 2 technical replicates
[5] = time point 1 (unit inferred), time 0 = 100, 3 replicates

T1 sequence (Q07817 whole entry): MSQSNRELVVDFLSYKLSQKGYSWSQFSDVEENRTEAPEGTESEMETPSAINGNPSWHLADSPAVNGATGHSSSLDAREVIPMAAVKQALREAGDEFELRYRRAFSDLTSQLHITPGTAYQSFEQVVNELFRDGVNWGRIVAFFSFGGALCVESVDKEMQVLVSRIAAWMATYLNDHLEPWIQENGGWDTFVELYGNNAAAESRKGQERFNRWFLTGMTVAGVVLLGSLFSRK
T2 sequence (Q07817 1-212 limits assumed): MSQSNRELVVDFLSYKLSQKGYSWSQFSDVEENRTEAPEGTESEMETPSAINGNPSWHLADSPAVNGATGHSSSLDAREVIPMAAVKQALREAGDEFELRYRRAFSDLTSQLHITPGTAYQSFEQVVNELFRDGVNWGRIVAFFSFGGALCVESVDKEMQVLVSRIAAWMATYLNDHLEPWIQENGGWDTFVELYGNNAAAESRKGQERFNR
T2 sequence (P40337 54-213 limits assumed): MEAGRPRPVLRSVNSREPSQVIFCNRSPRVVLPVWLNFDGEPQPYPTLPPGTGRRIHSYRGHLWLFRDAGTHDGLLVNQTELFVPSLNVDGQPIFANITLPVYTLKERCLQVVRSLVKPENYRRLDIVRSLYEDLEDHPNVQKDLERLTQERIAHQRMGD
T2 sequence (Q15369 17-112 partner limits assumed): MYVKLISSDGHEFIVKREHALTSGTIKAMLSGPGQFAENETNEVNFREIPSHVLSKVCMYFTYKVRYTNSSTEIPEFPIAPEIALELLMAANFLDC
T2 sequence (Q15370 whole entry partner): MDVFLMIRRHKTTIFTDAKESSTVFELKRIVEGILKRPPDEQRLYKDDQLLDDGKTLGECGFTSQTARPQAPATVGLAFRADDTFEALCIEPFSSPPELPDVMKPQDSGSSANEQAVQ
T3 sequence (P10415 whole entry): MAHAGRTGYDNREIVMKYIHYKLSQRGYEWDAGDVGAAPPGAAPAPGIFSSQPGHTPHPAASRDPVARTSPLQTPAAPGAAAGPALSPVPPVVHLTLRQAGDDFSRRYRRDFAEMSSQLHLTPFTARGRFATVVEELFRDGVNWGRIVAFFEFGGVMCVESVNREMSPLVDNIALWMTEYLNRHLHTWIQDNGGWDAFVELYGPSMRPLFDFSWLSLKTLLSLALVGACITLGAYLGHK

| AlphaLISA signal, BCL-xL/PROTAC/VCB ([2]; compound 0.19 nM) | AlphaLISA signal, BCL-xL/PROTAC/VCB ([2]; compound 3.05 nM) | AlphaLISA signal, BCL-xL/PROTAC/VCB ([2]; compound 12.21 nM) | AlphaLISA signal, BCL-xL/PROTAC/VCB ([2]; compound 195.31 nM) | AlphaLISA signal, BCL-xL/PROTAC/VCB ([2]; compound 781.25 nM) | AlphaLISA signal, BCL-xL/PROTAC/VCB ([2]; compound 3125 nM) | AlphaLISA signal, BCL-xL/PROTAC/VCB ([2]; compound 12500 nM) | AlphaLISA signal, BCL-xL/PROTAC/VCB [2, 4] | Structure (SMILES) | AlphaLISA signal, BCL-xL/PROTAC/VCB ([2]; compound 48.83 nM) | AlphaLISA signal, BCL-xL/PROTAC/VCB ([2]; compound 0.76 nM) | also measured |
| --- | --- | --- | --- | --- | --- | --- | --- | --- | --- | --- | --- |
| 27453 and 33756 | 365306 and 327240 | 971358 and 937064 | 1256006 and 1243530 | 553159 and 551116 | 187859 and 162857 | 42241 and 44787 | 28218 and 24731 | Cc1ncsc1-c1ccc([C@H](C)NC(=O)[C@@H]2C[C@@H](O)CN2C(=O)[C@@H](NC(=O)CCCCCCC(=O)N2CCN(C[C@@]3(C)CCC(c4ccc(Cl)cc4)=C(CN4CCN(c5ccc(C(=O)NS(=O)(=O)c6ccc(N[C@H](CCN7CCOCC7)CSc7ccccc7)c(S(=O)(=O)C(F)(F)F)c6)cc5)CC4)C3)CC2)C(C)(C)C)cc1 [753a] | 1567841 and 1437893 | – | BCL-xL degradation (in words) ([1]; 293T cells, 16 h): could only partially degrade BCL-xL |
| 12691 and 9324 | 28316 and 16721 | 27882 and 17689 | 22883 and 13939 | 12216 and 14015 | 19424 and 16133 | 17056 and 15505 | 14548 and 12360 | CC1(C)CCC(c2ccc(Cl)cc2)=C(CN2CCN(c3ccc(C(=O)NS(=O)(=O)c4ccc(N[C@H](CCN5CCOCC5)CSc5ccccc5)c(S(=O)(=O)C(F)(F)F)c4)cc3)CC2)C1 [ABT263, navitoclax] | – | 14711 and 17995 | – |

| Structure (SMILES) | AlphaLISA signal, BCL-xL/PROTAC/VCB ([2]; compound 0.19 nM) | AlphaLISA signal, BCL-xL/PROTAC/VCB ([2]; compound 3.05 nM) | AlphaLISA signal, BCL-xL/PROTAC/VCB ([2]; compound 12.21 nM) | AlphaLISA signal, BCL-xL/PROTAC/VCB ([2]; compound 195.31 nM) | AlphaLISA signal, BCL-xL/PROTAC/VCB ([2]; compound 781.25 nM) | AlphaLISA signal, BCL-xL/PROTAC/VCB ([2]; compound 3125 nM) | AlphaLISA signal, BCL-xL/PROTAC/VCB ([2]; compound 12500 nM) | AlphaLISA signal, BCL-xL/PROTAC/VCB [2, 4] | AlphaLISA signal, BCL-xL/PROTAC/VCB ([2]; compound 48.83 nM) | AlphaLISA signal, BCL-xL/PROTAC/VCB ([2]; compound 0.76 nM) | also measured |
| --- | --- | --- | --- | --- | --- | --- | --- | --- | --- | --- | --- |
| Cc1ncsc1-c1ccc([C@H](C)NC(=O)[C@@H]2C[C@@H](O)CN2C(=O)[C@@H](NC(=O)CCCCCCC(=O)N2CCN(C[C@]3(C)CCC(c4ccc(Cl)cc4)=C(CN4CCN(c5ccc(C(=O)NS(=O)(=O)c6ccc(N[C@H](CCN7CCOCC7)CSc7ccccc7)c(S(=O)(=O)C(F)(F)F)c6)cc5)CC4)C3)CC2)C(C)(C)C)cc1 [753b] | 52786 and 55133 | 554325 and 621989 | 1164205 and 1155712 | 1687174 and 1602581 | 724516 and 720957 | 238805 and 237649 | 37696 and 47526 | 26805 and 26614 | 1828094 and 1838568 | 140034 and 175918 | DC50 ([3]; 293T cells, 16 h, Fig. 3c, read-out: DC50 in degrading BCL-2): 48 nM; normalized BCL-2 protein content at 1 µM [3, 5]: 99%; normalized BCL-2 protein content at 1 µM ([3]; time point 3): 75%; normalized BCL-2 protein content at 1 µM ([3]; time point 6): 54%; normalized BCL-2 protein content at 1 µM ([3]; time point 12): 18%; normalized BCL-2 protein content at 1 µM ([3]; time point 16): 4%; normalized BCL-2 protein content at 1 µM ([3]; time point 24): 3%; normalized BCL-2 protein content at 1 µM ([3]; time point 36): 2%; DC50 ([1]; 293T cells, 16 h, Fig. 3c, read-out: DC50 in degrading BCL-xL): 6 nM; normalized BCL-xL protein content at 1 µM [1, 5]: 77%; normalized BCL-xL protein content at 1 µM ([1]; time point 3): 55%; normalized BCL-xL protein content at 1 µM ([1]; time point 6): 21%; normalized BCL-xL protein content at 1 µM ([1]; time point 12): 13%; normalized BCL-xL protein content at 1 µM ([1]; time point 16): 12%; normalized BCL-xL protein content at 1 µM ([1]; time point 24): 8%; in vitro ternary complex formation with BCL-xL (in words) ([2]; AlphaLISA, cell-free, Fig. 2c, 3e): stronger ternary complexes with BCL-xL/2 than those by 753a and DT2216 |
